# pIC50: −log10 of the molar value.
# Biological target: human TRPA1 (Homo sapiens (Human), UniProt O75762)
# Assay: hTRPA1 CHO Ca2+ FLIPR assay (block of cinnamaldehyde induced calcium influx)
# Assay type: cell-based
# Conditions: CHO cells expressing TRPA1; 75 uM cinnamaldehyde; Hill coefficient fixed to 1.5; read-out: hTRPA1 (hTRPA1 CHO Ca2+ MAX EVO (IC50))
# Procedure: CHO cells expressing TRPA1 were plated into 384-well plates, incubated overnight at 37° C., and loaded with BD calcium indicator dye for 1 hr at 37° C. followed by 15 minutes at room temperature. The assay buffer was Hank's Balanced Salt Solution (HBSS) containing 20 mM HEPES (pH readjusted to 7.4) along with 0.02% BSA.
# Following dye load and plate cool down, compounds were added to the cells using FLIPR Tetra. Plates were then incubated with compounds for 20 minutes at room temperature prior to adding agonist.
# The IC50 results were fit with a standard Hill function, keeping the Hill coefficient (n) fixed to 1.5. Fixing the Hill coefficient will generally reduce variability of the IC50 determination. The IC50 results were individually examined to make sure the MIN and MAX points were set correctly prior to validation of the results.
# human TRPA1, sequence (O75762 whole entry): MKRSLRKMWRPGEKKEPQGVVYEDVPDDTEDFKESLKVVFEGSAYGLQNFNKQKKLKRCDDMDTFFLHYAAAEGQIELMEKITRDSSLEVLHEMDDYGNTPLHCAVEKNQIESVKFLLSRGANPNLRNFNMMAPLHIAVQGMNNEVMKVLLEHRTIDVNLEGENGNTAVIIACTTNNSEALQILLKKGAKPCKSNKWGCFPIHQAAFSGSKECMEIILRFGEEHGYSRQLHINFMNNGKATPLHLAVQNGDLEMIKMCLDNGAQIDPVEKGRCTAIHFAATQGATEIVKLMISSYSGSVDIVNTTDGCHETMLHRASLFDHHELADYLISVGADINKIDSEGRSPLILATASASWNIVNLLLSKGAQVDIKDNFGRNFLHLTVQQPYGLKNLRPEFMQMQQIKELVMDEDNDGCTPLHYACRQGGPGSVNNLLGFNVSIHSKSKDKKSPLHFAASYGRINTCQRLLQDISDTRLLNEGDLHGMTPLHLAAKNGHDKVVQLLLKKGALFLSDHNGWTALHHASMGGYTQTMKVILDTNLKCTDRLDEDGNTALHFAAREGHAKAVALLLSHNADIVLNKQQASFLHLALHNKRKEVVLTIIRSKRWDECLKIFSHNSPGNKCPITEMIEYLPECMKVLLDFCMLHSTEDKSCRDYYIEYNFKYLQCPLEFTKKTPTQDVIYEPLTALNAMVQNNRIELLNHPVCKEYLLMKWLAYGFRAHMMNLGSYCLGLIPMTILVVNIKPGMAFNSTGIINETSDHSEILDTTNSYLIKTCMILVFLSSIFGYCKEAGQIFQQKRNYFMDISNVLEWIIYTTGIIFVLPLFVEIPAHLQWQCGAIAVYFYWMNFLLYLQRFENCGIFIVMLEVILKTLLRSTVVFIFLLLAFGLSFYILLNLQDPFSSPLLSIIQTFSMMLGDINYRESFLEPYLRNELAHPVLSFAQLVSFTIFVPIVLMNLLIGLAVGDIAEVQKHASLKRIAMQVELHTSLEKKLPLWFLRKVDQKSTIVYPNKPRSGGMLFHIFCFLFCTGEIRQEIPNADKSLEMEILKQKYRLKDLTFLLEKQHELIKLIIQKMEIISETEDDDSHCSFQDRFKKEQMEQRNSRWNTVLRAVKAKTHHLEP
row,SMILES,pIC50
1,"Cc1ccnc2ncn(Cc3nn([C@H]4C[C@](F)(c5ccc(Cl)cc5)C4)c(=O)o3)c(=O)c12 [compound 104, 3-[3-(4-chlorophenyl)-3-fluoro-cyclobutyl]-5-[(5-methyl-4-oxo-pyrido[2,3-d]pyrimidin-3-yl)methyl]-1,3,4-oxadiazol-2-one]",7.53
2,"Cn1cnc2ncn(Cc3nn(CCc4cccc(-c5ccccc5)c4)c(=O)o3)c(=O)c21 [compound 24, 7-methyl-1-([5-oxo-4-[2-(3-phenylphenyl)ethyl]-4,5-dihydro-1,3,4-oxadiazol-2-yl]methyl)-6,7-dihydro-1H-purin-6-one]",6.47
3,"Cc1ccnc2ncn(Cc3nn(CCc4ccc(Cl)cc4)c(=O)o3)c(=O)c12 [compound 7, 3-[2-(4-chlorophenyl)ethyl]-5-[(5-methyl-4-oxo-pyrido[2,3-d]pyrimidin-3-yl)methyl]-1,3,4-oxadiazol-2-one]",7.92
4,"COc1ccc([C@H]2C[C@H](n3nc(Cn4cnc5ncn(C)c5c4=O)oc3=O)C2)cc1 [compound 54, 3-(3-(4-methoxyphenyl)cyclobutyl)-5-((7-methyl-6-oxo-6,7-dihydro-1H-purin-1-yl)methyl)-1,3,4-oxadiazol-2(3H)-one]",6.98
5,"Cc1ccnc2ncn(Cc3nn([C@H]4C[C@H](c5ccc6ncccc6c5)C4)c(=O)o3)c(=O)c12 [compound 66, 5-[(5-methyl-4-oxo-pyrido[2,3-d]pyrimidin-3-yl)methyl]-3-[3-(6-quinolyl)cyclobutyl]-1,3,4-oxadiazol-2-one]",7.90
6,"Cc1ccnc2ncn(Cc3nn(CC(F)c4ccc(Cl)cc4)c(=O)o3)c(=O)c12 (stereo in doubt) [compound 34, 5-[(5-methyl-4-oxo-pyrido[2,3-d]pyrimidin-3-yl)methyl]-3-[(2S)-2-(4-chlorophenyl)-2-fluoro-ethyl]-1,3,4-oxadiazol-2-one]",8.30
7,"Cn1cnc2ncn(Cc3nn([C@@H]4C[C@@H](F)[C@@H](c5ccc(Cl)cc5)C4)c(=O)o3)c(=O)c21 (racemic) [compound 82, 5-[(7-methyl-6-oxo-purin-1-yl)methyl]-3-[rac-(1S,3R,4R)-3-(4-chlorophenyl)-4-fluoro-cyclopentyl]-1,3,4-oxadiazol-2-one]",7.36
8,"Cn1cnc2ncn(Cc3nn([C@H]4C[C@H](Oc5cccc(F)c5)C4)c(=O)o3)c(=O)c21 [compound 63, trans-3-[3-(3-fluorophenoxy)cyclobutyl]-5-[(7-methyl-6-oxo-purin-1-yl)methyl]-1,3,4-oxadiazol-2-one]",7.94
9,"CN(C)c1ccc(CCn2nc(Cn3cnc4ncn(C)c4c3=O)oc2=O)cc1 [compound 17, 3-(4-(dimethylamino)phenethyl)-5-((7-methyl-6-oxo-6H-purin-1(7H)-yl)methyl)-1,3,4-oxadiazol-2(3H)-one]",6.79
10,"Cn1cnc2ncn(Cc3nn(C[C@H](F)c4cccc(Cl)c4)c(=O)o3)c(=O)c21 (racemic) [compound 84, 5-[(7-methyl-6-oxo-purin-1-yl)methyl]-3-[rac-(2R)-2-(3-chlorophenyl)-2-fluoro-ethyl]-1,3,4-oxadiazol-2-one]",6.78
11,"Cc1cncc2ncn(Cc3nn(CCc4ccc(Cl)cc4)c(=O)o3)c(=O)c12 [compound 6, 3-(4-chlorophenethyl)-5-((5-methyl-4-oxopyrido[3,4-d]pyrimidin-3(4H)-yl)methyl)-1,3,4-oxadiazol-2(3H)-one]",7.89
12,"Cn1cnc2ncn(Cc3nn(CCCOc4cccc(Cl)c4)c(=O)o3)c(=O)c21 [compound 86, 1-([4-[3-(3-chlorophenoxy)propyl]-5-oxo-4,5-dihydro-1,3,4-oxadiazol-2-yl]methyl)-7-methyl-6,7-dihydro-1H-purin-6-one]",7.65
13,"COc1ccc(CCn2nc(Cn3cnc4ncn(C)c4c3=O)oc2=O)cc1 [compound 11, 3-(4-methoxyphenethyl)-5-((7-methyl-6-oxo-6H-purin-1(7H)-yl)methyl)-1,3,4-oxadiazol-2(3H)-one]",6.56
14,"Cn1cnc2ncn(Cc3nn([C@H]4C[C@H](Oc5ccc(Cl)cc5)C4)c(=O)o3)c(=O)c21 [compound 69, 3-[3-(4-chlorophenoxy)cyclobutyl]-5-[(7-methyl-6-oxo-purin-1-yl)methyl]-1,3,4-oxadiazol-2-one]",6.11
15,"Cn1cnc2ncn(Cc3nn(CCc4ccc(C5CC5)cc4)c(=O)o3)c(=O)c21 [compound 16, 3-(4-cyclopropylphenethyl)-5-((7-methyl-6-oxo-6H-purin-1(7H)-yl)methyl)-1,3,4-oxadiazol-2(3H)-one]",6.45
16,"Cn1cnc2ncn(Cc3nn([C@H]4C[C@H](Oc5cccc(C#N)c5)C4)c(=O)o3)c(=O)c21 [compound 62, 3-[3-[5-[(7-methyl-6-oxo-purin-1-yl)methyl]-2-oxo-1,3,4-oxadiazol-3-yl]cyclobutoxy]benzonitrile]",7.34

row,SMILES,pIC50
1,"C[C@@H](Cn1nc(Cn2cnc3ncn(C)c3c2=O)oc1=O)c1ccc(Cl)cc1 [compound 20, (R)-3-(2-(4-chlorophenyl)propyl)-5-((7-methyl-6-oxo-6H-purin-1(7H)-yl)methyl)-1,3,4-oxadiazol-2(3H)-one]",6.09
2,"Cn1cnc2c(C#N)nn(Cc3nn(CCc4ccc(Cl)cc4)c(=O)o3)c2c1=O [compound 22, 1-([4-[2-(4-chlorophenyl)ethyl]-5-oxo-4,5-dihydro-1,3,4-oxadiazol-2-yl]methyl)-6-methyl-7-oxo-1H,6H,7H-pyrazolo[4,3-d]pyrimidine-3-carbonitrile]",7.85
3,"Cn1cnc2ncn(Cc3nn([C@@H]4CC[C@@H](c5ccc(Cl)cc5)C4)c(=O)o3)c(=O)c21 [compound 100, 5-[(7-methyl-6-oxo-purin-1-yl)methyl]-3-[(1R,3R)-3-(4-chlorophenyl)cyclopentyl]-1,3,4-oxadiazol-2-one]",8.02
4,"Cn1cnc2ncn(Cc3nn([C@H]4C[C@H](c5ccc(Br)cc5)C4)c(=O)o3)c(=O)c21 [compound 52, 3-[3-(4-bromophenyl)cyclobutyl]-5-[(7-methyl-6-oxo-purin-1-yl)methyl]-1,3,4-oxadiazol-2-one]",7.70
5,"Cn1cnc2ncn(Cc3nn([C@H]4C[C@H](c5ccc(C(F)(F)F)cc5)C4)c(=O)o3)c(=O)c21 [compound 111, 5-[(7-methyl-6-oxo-purin-1-yl)methyl]-3-[3-[4-(trifluoromethyl)phenyl]cyclobutyl]-1,3,4-oxadiazol-2-one]",7.05
6,"Cn1cnc2ncn(Cc3nn(CCc4ccc(C(F)(F)F)cc4)c(=O)o3)c(=O)c21 [compound 9, 5-((7-methyl-6-oxo-6H-purin-1(7H)-yl)methyl)-3-(4-(trifluoromethyl)phenethyl)-1,3,4-oxadiazol-2(3H)-one]",6.24
7,"Cc1csc2ncc(Cc3nn(CCc4ccc(Cl)cc4)c(=O)o3)c(=O)n12 [compound 47, 3-(4-chlorophenethyl)-5-((3-methyl-5-oxo-5H-thiazolo[3,2-a]pyrimidin-6-yl)methyl)-1,3,4-oxadiazol-2(3H)-one]",7.19
8,"Cc1ccc(=O)n2ccn(Cc3nn([C@H]4C[C@H](c5ccc(Cl)cc5)C4)c(=O)o3)c(=O)c12 [compound 58, 2-[[4-[3-(4-chlorophenyl)cyclobutyl]-5-oxo-1,3,4-oxadiazol-2-yl]methyl]-9-methyl-pyrido[1,2-a]pyrazine-1,6-dione]",7.39
9,"Cn1cnc2ncn(Cc3nn(CCc4ccc(Br)c(Cl)c4)c(=O)o3)c(=O)c21 [compound 25, 1-([4-[2-(4-bromo-3-chlorophenyl)ethyl]-5-oxo-4,5-dihydro-1,3,4-oxadiazol-2-yl]methyl)-7-methyl-6,7-dihydro-1H-purin-6-one]",6.88
10,"Cn1cnc2ncn(Cc3nn(C[C@@H](F)c4ccc5ccccc5c4)c(=O)o3)c(=O)c21 [compound 37, 5-[(7-methyl-6-oxo-purin-1-yl)methyl]-3-[(2S)-2-fluoro-2-(2-naphthyl)ethyl]-1,3,4-oxadiazol-2-one]",6.48
11,"Cn1cnc2ncn(Cc3nn(C[C@H](F)c4ccc(OC(F)(F)F)cc4)c(=O)o3)c(=O)c21 (racemic) [compound 109, 5-[(7-methyl-6-oxo-purin-1-yl)methyl]-3-[rac-(2R)-2-fluoro-2-[4-(trifluoromethoxy)phenyl]ethyl]-1,3,4-oxadiazol-2-one]",7.72
12,"Cn1cnc2ncn(Cc3nn(CCc4ccc(Cl)s4)c(=O)o3)c(=O)c21 [compound 21, 3-(2-(5-chlorothiophen-2-yl)ethyl)-5-((7-methyl-6-oxo-6H-purin-1(7H)-yl)methyl)-1,3,4-oxadiazol-2(3H)-one]",6.54
13,"O=c1c2cccnc2ncn1Cc1nn([C@H]2C[C@H](c3ccc(Cl)cc3)C2)c(=O)o1 [compound 98, trans-3-[3-(4-chlorophenyl)cyclobutyl]-5-[(4-oxopyrido[2,3-d]pyrimidin-3-yl)methyl]-1,3,4-oxadiazol-2-one]",7.79
14,"Cc1ccc(CCn2nc(Cn3cnc4ncn(C)c4c3=O)oc2=O)cc1 [compound 31, 5-[(7-methyl-6-oxo-purin-1-yl)methyl]-3-[2-(p-tolyl)ethyl]-1,3,4-oxadiazol-2-one]",6.90
15,"Cc1ccnc2ncn(Cc3nn([C@@H]4CC[C@@H](c5ccc(F)cc5)C4)c(=O)o3)c(=O)c12 (racemic) [compound 67, 5-[(5-methyl-4-oxo-pyrido[2,3-d]pyrimidin-3-yl)methyl]-3-[rac-(1R,3R)-3-(4-fluorophenyl)cyclopentyl]-1,3,4-oxadiazol-2-one]",8.32
16,"Cn1cnc2ncn(Cc3nn([C@@H]4CC[C@@H](c5cccc(F)c5)C4)c(=O)o3)c(=O)c21 (racemic) [compound 76, 5-[(7-methyl-6-oxo-purin-1-yl)methyl]-3-[rac-(1R,3R)-3-(3-fluorophenyl)cyclopentyl]-1,3,4-oxadiazol-2-one]",7.12

# — US10913742B2, “Oxadiazolones as transient receptor potential channel inhibitors” (Genentech, Inc., priority 2017, dated 2021)
